Laboratory results taken from patent US10618916B2, “Heterocyclic compounds as immunomodulators” (Incyte Corporation, priority 2018, dated 2020).
Where two headings read alike, the source gives them in different places.

Key:
[1] = molecular target: PD-1/PD-L1 protein/protein interaction (recombinant human PD-L1 and human PD-1) (Homo sapiens (Human), UniProt Q9NZQ7); experiment: Homogeneous Time-Resolved Fluorescence (HTRF) PD-1/PD-L1 binding assay
Procedure: Example A. Homogeneous Time-Resolved Fluorescence (HTRF) PD-1/PD-L1 Binding Assay
The assays were conducted in a standard black 384-well polystyrene plate with a final volume of 20 μL. Inhibitors were first serially diluted in DMSO and then added to the plate wells before the addition of other reaction components. The final concentration of DMSO in the assay was 1%. The assays were carried out at 25° C. in the PBS buffer (pH 7.4) with 0.05% Tween-20 and 0.1% BSA. Recombinant human PD-L1 protein (19-238) with a His-tag at the C-terminus was purchased from AcroBiosystems (PD1-H5229). Recombinant human PD-1 protein (25-167) with Fc tag at the C-terminus was also purchased from AcroBiosystems (PD1-H5257). PD-L1 and PD-1 proteins were diluted in the assay buffer and 10 μL was added to the plate well. Plates were centrifuged and proteins were preincubated with inhibitors for 40 minutes. The incubation was followed by the addition of 10 μL of HTRF detection buffer supplemented with Europium cryptate-labeled anti-human IgG (PerkinElmer-AD0212) specific for Fc and anti-His antibody conjugated to SureLight®-Allophycocyanin (APC, PerkinElmer-AD0059H). After centrifugation, the plate was incubated at 25° C. for 60 min. before reading on a PHERAstar FS plate reader (665 nm/620 nm ratio). Final concentrations in the assay were—3 nM PD1, 10 nM PD-L1, 1 nM europium anti-human IgG and 20 nM anti-His-Allophycocyanin. IC50 determination was performed by fitting the curve of percent control activity versus the log of the inhibitor concentration using the GraphPad Prism 5.0 software.

[2] = test system: PD-L1 aAPC/CHO-K1 cells and Jurkat-PD-1-NFAT effector cells; experiment: Nuclear factor of activated T-cells (NFAT) assay; assay type: cell-based
Procedure: Example C. Nuclear Factor of Activated T-Cells (NFAT) Assay
PD-L1 aAPC/CHO-K1 cells (Promega) were maintained in F-12 medium with addition of 10% FBS, 200 μg/ml Hygromycin B, 250 μg/ml Geneticin (G418). Jurkat-PD-1-NFAT effector cells (Promega) were cultured in RPMI 1640 medium supplemented with 10% FBS, 100 μg/ml Hygromycin B, 500 μg/ml G418. The culture media of PD-L1 aAPC/CHO-K1 cells were first replaced with assay medium (RPMI1640 medium with 1% FBS). The PD-L1 aAPC/CHO-K1 cells were then added in a white 384-well white clear bottom assay plate (CELLCOAT® Tissue Culture Plates, Greiner Bio-One) at 8000 per well in 10 μL assay medium. Test compounds were prepared by serial dilution in DMSO and 0.8 μL test compounds in DMSO were first transferred to the 384 REMP plate well (Thermofisher) by PlateMate Plus (Thermofisher) followed with addition of 50 μL plating medium. 5 μL compounds in the assay medium were transferred to the cells with 0.4% DMSO in the final assay at 2 μM. After removing the culture media, 10,000 Jurkat-PD-1-NFAT effector cells in 5 μL assay medium was dispensed into each well. The assay plate was incubated at 37° C., 5% CO2 for 24 hours. After the assay plate was equilibrated to room temp for 15 minutes, 20 µL/well of Bio-Glo™ reagent (Promega) were added. After 8 minutes incubation at room temperature, luminescence was read at with Pherastar microplate reader (BMG Labtech). The fold of induction (FOI) was calculated based on the ratio of luminescence normalized to the DMSO wells within each assay plate. The maximum percentage of induction was reported based on the ratio between the highest FOI of each compound and the maximum FOI of control compound within each assay plate. Wells with DMSO were served as the negative controls and wells containing control compound with the highest FOI were used as positive controls. EC50 determination was performed by fitting the curve of percent control activity versus the log of the compound concentration using the GraphPad Prism 6.0 software.

PD-L1 = PD-L1 (Homo sapiens (Human), UniProt Q9NZQ7); experiment: PD-L1 whole blood internalization assay; assay type: cell-based; settings: 24 HR, PD-L1 expression on CD14+ cells, human interferon γ
Procedure: Example D. PD-L1 Whole Blood Internalization Assay
To determine PD-L1 internalization in human whole blood, normal human blood (Biological Specialty Corp, Colmar. Pa.) was incubated in the presence or absence of a concentration range of test compounds and 1 ng/ml human interferon γ (R&D Systems Inc. Minn. […] Blood was then stained with PD-L1 (MIH1, eBioscience; or BD Biosciences San Jose, Calif.), CD14 (Life Technologies, Carlsbad, Calif.) for 30 minutes in the dark at room temperature. Whole Blood/red cells were lysed/fixed (lysis buffer BD Biosciences) for 5 minutes at 37° C. in the dark and then centrifuged at 1600 RPM for 5 minutes. Cells were resuspended in Stain Buffer (BD Bioscience, San Jose, Calif.) and transferred into 96 well round bottom plates (Corning). Cells were gated on CD14+(BD Biosciences) and PD-L1 expression determined by mean fluorescence intensity (MFI) (BD LSRFortessa™ X-20). IC50 determination was performed by fitting the curve of compound percent inhibition versus the log of the compound concentration using the GraphPad Prism 7.0 software.

[3] = test system: U2OS/PD-L1 cells and Jurkat-PD-1-SHP cells; experiment: Src homology region 2 domain-containing phosphatase (SHP) assay; assay type: cell-based
Procedure: Example B. Src Homology Region 2 Domain-Containing Phosphatase (SHP) Assay
U2OS/PD-L1 cells (DiscoveRx Corporation) were maintained in McCoy's 5A medium with addition of 10% FBS, 0.25 μg/ml Puromycin. After removing the culture media, the cell medium was replaced with assay medium (RPMI1640 medium with 1% FBS). The U2OS/PD-L1 cells were then added in 384-well black clear bottom assay plate (CELLCOAT® Tissue Culture Plates, Greiner Bio-One) at 5000 cells per well in 20 μL assay medium. Test compounds were prepared by serial dilution in DMSO and 125 nL compound were first transferred to the 384 REMP plate well (Thermofisher) by ECHO liquid handler (Labcyte) followed with addition of 27.5 μL assay medium. 5 μL/well compounds in the assay medium were transferred to the cell plate with 0.05% DMSO in the final assay at […]. Jurkat-PD-1-SHP cells (DiscoveRx Corporation) were cultured in RPMI1640 medium supplemented with 10% FBS, 250 μg/ml Hygromycin B, 500 μg/ml G418. After the replacement of culture media with assay medium, 5,000 Jurkat-PD-1-SHP cells in 20 μL were dispensed into each well. The assay plate was incubated at 37° C., 5% CO2 for 2 hours before 2.5 μL PathHunter reagent 1 (DiscoveRx Corporation) were added to each well. The assay plate was shaken for 1 min at 350 rpm in the dark followed with addition of 10 μL PathHunter reagent 2 (DiscoveRx Corporation). Chemiluminescent signal was recorded with TopCount reader (Perkin Elmer) after incubation at room temperature for 1 hour. Wells with DMSO were served as the positive controls and wells containing no cells were used as negative controls. IC50 determination was performed by fitting the curve of percentage of control activity versus the log of the compound concentration using the GraphPad Prism 6.0 software.

Sequence of PD-1/PD-L1 protein/protein interaction (recombinant human PD-L1 and human PD-1) (Q9NZQ7 19-238): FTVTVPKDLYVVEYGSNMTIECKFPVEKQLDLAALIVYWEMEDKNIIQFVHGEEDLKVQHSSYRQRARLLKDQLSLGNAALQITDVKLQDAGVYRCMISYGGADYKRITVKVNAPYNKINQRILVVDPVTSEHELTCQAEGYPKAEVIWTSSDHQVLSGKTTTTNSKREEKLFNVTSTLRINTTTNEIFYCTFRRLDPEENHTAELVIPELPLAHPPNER
Sequence of PD-L1 (Q9NZQ7 19-290): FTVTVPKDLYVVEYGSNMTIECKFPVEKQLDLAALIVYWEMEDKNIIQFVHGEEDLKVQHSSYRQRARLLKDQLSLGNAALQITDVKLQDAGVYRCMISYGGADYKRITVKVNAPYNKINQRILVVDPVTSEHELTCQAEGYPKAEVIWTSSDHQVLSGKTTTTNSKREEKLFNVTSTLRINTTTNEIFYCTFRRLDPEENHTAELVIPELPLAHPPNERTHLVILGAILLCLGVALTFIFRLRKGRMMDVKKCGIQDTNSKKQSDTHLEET

Row | Structure (SMILES) | IC50 [1] | IC50 (PD-L1) | IC50 ([3]; Homo sapiens, U2OS) | IC50 [3] | EC50 ([2]; Cricetulus griseus, CHO-K1) | EC50 [2]
1 | Cn1c(C(=O)Nc2cccc(-c3cccc(NC(=O)c4nc5c(n4C)CCN(C4CCC4)C5)c3Cl)c2Cl)nc2c1CCN(CCC13CCC(C(=O)O)(CC1)C3)C2 [Example 6, 4-(2-(2-((2,2′-dichloro-3′-(5-cyclobutyl-1-methyl-4,5,6,7-tetrahydro-1H-imidazo[4,5-c]pyridine-2-carboxamido)-[1,1′-biphenyl]-3-yl)carbamoyl)-1-methyl-1,4,6,7-tetrahydro-5H-imidazo[4,5-c]pyridin-5-yl)ethyl)bicyclo[2.2.1]heptane-1-carboxylic acid] | ≤ 5 nM | – | ≤ 10 nM | – | 10 to 100 nM | –
2 | CN1CCc2c(nc(C(=O)Nc3cccc(-c4cccc(NC(=O)c5nc6c(n5C)CCN(CCC57CCC(C(=O)O)(CC5)C7)C6)c4Cl)c3Cl)n2C)C1 [Example 3, 4-(2-(2-((2,2′-dichloro-3′-(1,5-dimethyl-4,5,6,7-tetrahydro-1H-imidazo[4,5-c]pyridine-2-carboxamido)-[1,1′-biphenyl]-3-yl)carbamoyl)-1-methyl-1,4,6,7-tetrahydro-5H-imidazo[4,5-c]pyridin-5-yl)ethyl)bicyclo[2.2.1]heptane-1-carboxylic acid] | ≤ 5 nM | – | ≤ 10 nM | – | 10 to 100 nM | –
3 | CCN1CCc2c(nc(C(=O)Nc3cccc(-c4cccc(NC(=O)c5nc6c(n5C)CCN(CCC57CCC(C(=O)O)(CC5)C7)C6)c4Cl)c3Cl)n2C)C1 [Example 4, 4-(2-(2-((2,2′-dichloro-3′-(5-ethyl-1-methyl-4,5,6,7-tetrahydro-1H-imidazo[4,5-c]pyridine-2-carboxamido)-[1,1′-biphenyl]-3-yl)carbamoyl)-1-methyl-1,4,6,7-tetrahydro-5H-imidazo[4,5-c]pyridin-5-yl)ethyl)bicyclo[2.2.1]heptane-1-carboxylic acid] | ≤ 5 nM | – | ≤ 10 nM | – | 10 to 100 nM | –
4 | Cc1c(NC(=O)c2nc3c(n2C)CCN(C2CCC(O)CC2)C3)cccc1-c1cccc(NC(=O)c2nc3c(n2C)CCN(CCC24CCC(C(=O)O)(CC2)C4)C3)c1Cl (single isomer, unassigned) [61 (compound 2), 4-(2-(2-((2-chloro-3′-(5-(4-hydroxycyclohexyl)-1-methyl-4,5,6,7-tetrahydro-1H-imidazo[4,5-c]pyridine-2-carboxamido)-2′-methyl-[1,1′-biphenyl]-3-yl)carbamoyl)-1-methyl-1,4,6,7-tetrahydro-5H-imidazo[4,5-c]pyridin-5-yl)ethyl)bicyclo[2.2.1]heptane-1-carboxylic acid] | ≤ 5 nM | – | – | ≤ 10 nM | – | 10 to 100 nM

Continued, in another order:

Row | IC50 [1] | IC50 (PD-L1) | IC50 ([3]; Homo sapiens, U2OS) | IC50 [3] | Structure (SMILES) | EC50 ([2]; Cricetulus griseus, CHO-K1) | EC50 [2]
5 | ≤ 5 nM | 10 to 100 nM | – | – | Cc1c(NC(=O)c2nc3c(n2C)CCN(C2CCOCC2)C3)cccc1-c1cccc(NC(=O)c2nc3c(n2C)CCN(CCC24CCC(C(=O)O)(CC2)C4)C3)c1Cl [Example 28, 4-(2-(2-((2-chloro-2′-methyl-3′-(1-methyl-5-(tetrahydro-2H-pyran-4-yl)-4,5,6,7-tetrahydro-1H-imidazo[4,5-c]pyridine-2-carboxamido)-[1,1′-biphenyl]-3-yl)carbamoyl)-1-methyl-1,4,6,7-tetrahydro-5H-imidazo[4,5-c]pyridin-5-yl)ethyl)bicyclo[2.2.1]heptane-1-carboxylic acid] | 10 to 100 nM | –
6 | ≤ 5 nM | – | 10 to 100 nM | – | Cn1c(C(=O)Nc2cccc(-c3cccc(NC(=O)c4nc5c(n4C)CCN(CC46CCC(C(=O)O)(CC4)C6)C5)c3C#N)c2Cl)nc2c1CCN(CCC13CCC(C(=O)O)(CC1)C3)C2 [Example 52, 4-((2-((3′-(5-(2-(4-carboxybicyclo[2.2.1]heptan-1-yl)ethyl)-1-methyl-4,5,6,7-tetrahydro-1H-imidazo[4,5-c]pyridine-2-carboxamido)-2′-chloro-2-cyano-[1,1′-biphenyl]-3-yl)carbamoyl)-1-methyl-1,4,6,7-tetrahydro-5H-imidazo[4,5-c]pyridin-5-yl)methyl)bicyclo[2.2.1]heptane-1-carboxylic acid] | 100 to 500 nM | –
7 | ≤ 5 nM | – | ≤ 10 nM | – | Cc1c(NC(=O)c2nc3c(n2C)CCN(CCC24CCC(C(=O)O)(CC2)C4)C3)cccc1-c1cccc(NC(=O)c2nc3c(n2C)CCN(CC24CCC(C(=O)O)(CC2)C4)C3)c1C [Example 55, 4-((2-((3′-(5-(2-(4-carboxybicyclo[2.2.1]heptan-1-yl)ethyl)-1-methyl-4,5,6,7-tetrahydro-1H-imidazo[4,5-c]pyridine-2-carboxamido)-2,2′-dimethyl-[1,1′-biphenyl]-3-yl)carbamoyl)-1-methyl-1,4,6,7-tetrahydro-5H-imidazo[4,5-c]pyridin-5-yl)methyl)bicyclo[2.2.1]heptane-1-carboxylic acid] | 10 to 100 nM | –
8 | ≤ 5 nM | – | ≤ 10 nM | – | Cc1c(NC(=O)c2nc3c(n2C)CCN(CCC24CCC(C(=O)O)(CC2)C4)C3)cccc1-c1cccc(NC(=O)c2nc3c(n2C)CCN(C)C3)c1Cl [Example 39, 4-(2-(2-((2′-chloro-3′-(1,5-dimethyl-4,5,6,7-tetrahydro-1H-imidazo[4,5-c]pyridine-2-carboxamido)-2-methyl-[1,1′-biphenyl]-3-yl)carbamoyl)-1-methyl-1,4,6,7-tetrahydro-5H-imidazo[4,5-c]pyridin-5-yl)ethyl)bicyclo[2.2.1]heptane-1-carboxylic acid] | 10 to 100 nM | –
